Some results are limits rather than exact numbers.

Common to all, as to assay type: biochemical
For experiment [1], the target named is T1, p110α/p85α (PI3Kα) (Homo sapiens, UniProt P42336).
T1 construct: purchased BPS Bioscience or Millipore 40620 (BPS Bioscience) or 14-602 (Millipore)
Put plainly: HTRF assay, p110α/p85α. The following applies: read-out: PI3Kα-HTRF-IC50 nM Inhibition Designation. The procedure:
HTRF Assay Protocol for Potency Assessment Against the Active Form of p110α/p85α:
(§1) The mechanics of the assay platform are best described by the vendor (Millipore, Billerica, Mass.) on their website at the following URL: http://www.millipore.com/coa/tech1/74jt4z.
(§2) Briefly, Stop solution (Stop A, #33-007 and Stop B, #33-009; 3:1 ratio) and Detection Mix (DMC, #33-015 with DMA, #33-011 and DMB, #33-013; 18:1:1 ratio) were prepared as recommended by the manufacturer ˜2 hrs prior to use. […] Lipid kinase reactions were started with the addition of 5 μL of ATP solution, mixed for 15 sec on a rotary plate shaker and incubated for 15-30 minutes at 25° C. Next, reactions were stopped with a 5 μL addition of Stop solution followed by a 5 μL volume of Detection Mix. […] At the conclusion of each assay, the HTRF ratio from fluorescence emission values for each well was calculated and % Inhibition determined from averaged controls wells. % Inhibition values for each compound re then plotted against inhibitor concentration to estimate IC50 from log [Inhibitor] vs Response, Variable Slope model in GraphPad Prism from GraphPad Software (San Diego, Calif.).

For experiment [2], the target named is T2, p120γ (PI3Kγ) (Homo sapiens, UniProt P48736).
T2 construct: purchased BPS Bioscience 40625
The experiment in a line: HTRF assay, p120γ. The following applies: PI3Kγ; read-out: PI3Kγ HTRF IC50 Inhibition Designation. The text has this:
The protocol below describes an end-point, competition-binding HTRF assay used to measure inherent potency of test compounds against active p110α/p85α, p110β/p85α, p120γ enzymes. The mechanics of the assay platform are best described by the vendor (Millipore, Billerica, Mass.) on their website at the following URL: http://www.millipore.com/coa/tech1/74jt4z.
Briefly, Stop solution (Stop A, #33-007 and Stop B, #33-009; 3:1 ratio) and Detection Mix (DMC, #33-015 with DMA, #33-011 and DMB, #33-013; 18:1:1 ratio) were prepared as recommended by the manufacturer ˜2 hrs prior to use. Additionally, 1× reaction buffer (4× buffer stock #33-003), a 1.4× stock of enzyme from BPS Bioscience (San Diego, Ca) or Millipore (Billerica, Mass.) with di-C8-PIP2 lipid substrate (#33-005), and a 4×ATP solution (#A7699) Sigma/Aldrich (St. Louis, Mo.) were prepared in 1×reaction buffer. 15 μL of enzyme and lipid substrate mix were pre-incubated in a Corning (#3573) 384-well, black, non-treated microtiter plate (Corning, N.Y.) for 30 min at 25° C. with a 0.5 μL volume of 50% DMSO and serially diluted compounds prepared in 50%-75% DMSO. Lipid kinase reactions were started with the addition of 5 μL of ATP solution, mixed for 15 sec on a rotary plate shaker and incubated for 15-30 minutes at 25° C. Next, reactions were stopped with a 5 μL addition of Stop solution followed by a 5 μL volume of Detection Mix. Stopped reactions were equilibrated for 1 and 18 hrs at room temperature and then read in a Synergy4 plate reader from BioTek (Winooski, Vt.) at λex330-80/λem620-35 and λem665-7.5. At the conclusion of each assay, the HTRF ratio from fluorescence emission values for each well was calculated and % Inhibition determined from averaged controls wells. % Inhibition values for each compound re then plotted against inhibitor concentration to estimate IC50 from log [Inhibitor] vs Response, Variable Slope model in GraphPad Prism from GraphPad Software (San Diego, Calif.).
Reagents Used in Optimized Protocol: • [p120γ]=1-4 nM, [ATP]=50 μM, [di-C8-PIP2]=10 μM • (40625; BPS Bioscience)

The target of experiment [3] is T3, p110β/p85α (PI3Kβ) (Homo sapiens, UniProt P42338).
T3 construct: purchased Millipore 14-603
Put plainly: HTRF assay, p110β/p85α. Particulars: read-out: PI3Kβ HTRF IC50 Inhibition Designation. On the procedure:
as §1, §2

T1 sequence (P42336 whole entry): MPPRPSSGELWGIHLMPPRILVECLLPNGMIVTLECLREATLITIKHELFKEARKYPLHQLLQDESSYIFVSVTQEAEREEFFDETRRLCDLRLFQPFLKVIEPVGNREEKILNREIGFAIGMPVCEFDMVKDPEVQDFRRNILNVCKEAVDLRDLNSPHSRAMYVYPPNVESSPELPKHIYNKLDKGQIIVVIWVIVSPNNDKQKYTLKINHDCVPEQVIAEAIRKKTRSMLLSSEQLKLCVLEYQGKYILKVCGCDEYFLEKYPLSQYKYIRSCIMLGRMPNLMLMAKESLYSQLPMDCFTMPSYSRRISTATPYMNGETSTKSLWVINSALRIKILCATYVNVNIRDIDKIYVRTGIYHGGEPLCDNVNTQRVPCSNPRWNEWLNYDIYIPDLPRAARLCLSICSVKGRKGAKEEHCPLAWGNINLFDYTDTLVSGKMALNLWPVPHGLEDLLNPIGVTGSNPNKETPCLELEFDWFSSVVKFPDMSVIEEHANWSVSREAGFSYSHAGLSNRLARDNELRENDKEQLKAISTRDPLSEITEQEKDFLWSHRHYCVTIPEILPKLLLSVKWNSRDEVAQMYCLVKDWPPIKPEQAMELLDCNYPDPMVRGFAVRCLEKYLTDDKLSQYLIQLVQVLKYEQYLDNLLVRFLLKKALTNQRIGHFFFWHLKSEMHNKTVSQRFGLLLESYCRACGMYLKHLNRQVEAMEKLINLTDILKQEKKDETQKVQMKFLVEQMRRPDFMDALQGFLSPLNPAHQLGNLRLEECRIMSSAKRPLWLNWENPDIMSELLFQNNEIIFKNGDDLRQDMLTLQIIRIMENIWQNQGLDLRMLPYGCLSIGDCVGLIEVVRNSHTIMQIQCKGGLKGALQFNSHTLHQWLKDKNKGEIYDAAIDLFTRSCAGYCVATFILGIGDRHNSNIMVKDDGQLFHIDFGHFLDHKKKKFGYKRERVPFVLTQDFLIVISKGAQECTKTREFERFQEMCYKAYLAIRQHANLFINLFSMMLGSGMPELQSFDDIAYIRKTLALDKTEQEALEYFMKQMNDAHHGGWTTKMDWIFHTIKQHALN
T1 sequence (P27986 whole entry partner): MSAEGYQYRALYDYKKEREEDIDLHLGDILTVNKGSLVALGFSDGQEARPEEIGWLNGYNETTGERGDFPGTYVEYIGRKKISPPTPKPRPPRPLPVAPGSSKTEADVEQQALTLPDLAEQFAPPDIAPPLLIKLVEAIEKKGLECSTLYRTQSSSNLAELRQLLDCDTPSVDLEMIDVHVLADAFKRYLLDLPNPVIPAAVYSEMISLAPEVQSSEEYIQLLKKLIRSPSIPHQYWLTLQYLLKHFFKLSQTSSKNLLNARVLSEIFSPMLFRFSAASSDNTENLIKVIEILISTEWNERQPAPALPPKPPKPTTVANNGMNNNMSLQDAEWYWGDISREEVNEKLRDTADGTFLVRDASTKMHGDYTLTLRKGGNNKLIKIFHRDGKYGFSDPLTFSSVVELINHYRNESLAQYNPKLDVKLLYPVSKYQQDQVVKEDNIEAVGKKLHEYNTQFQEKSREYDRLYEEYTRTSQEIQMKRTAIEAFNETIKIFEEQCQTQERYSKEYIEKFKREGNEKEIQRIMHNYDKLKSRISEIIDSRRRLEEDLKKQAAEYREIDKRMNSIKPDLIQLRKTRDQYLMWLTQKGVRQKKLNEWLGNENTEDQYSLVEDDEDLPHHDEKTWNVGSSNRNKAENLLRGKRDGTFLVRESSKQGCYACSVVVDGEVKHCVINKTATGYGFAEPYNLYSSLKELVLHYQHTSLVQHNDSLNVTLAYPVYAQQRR
T3 sequence (P42338 whole entry): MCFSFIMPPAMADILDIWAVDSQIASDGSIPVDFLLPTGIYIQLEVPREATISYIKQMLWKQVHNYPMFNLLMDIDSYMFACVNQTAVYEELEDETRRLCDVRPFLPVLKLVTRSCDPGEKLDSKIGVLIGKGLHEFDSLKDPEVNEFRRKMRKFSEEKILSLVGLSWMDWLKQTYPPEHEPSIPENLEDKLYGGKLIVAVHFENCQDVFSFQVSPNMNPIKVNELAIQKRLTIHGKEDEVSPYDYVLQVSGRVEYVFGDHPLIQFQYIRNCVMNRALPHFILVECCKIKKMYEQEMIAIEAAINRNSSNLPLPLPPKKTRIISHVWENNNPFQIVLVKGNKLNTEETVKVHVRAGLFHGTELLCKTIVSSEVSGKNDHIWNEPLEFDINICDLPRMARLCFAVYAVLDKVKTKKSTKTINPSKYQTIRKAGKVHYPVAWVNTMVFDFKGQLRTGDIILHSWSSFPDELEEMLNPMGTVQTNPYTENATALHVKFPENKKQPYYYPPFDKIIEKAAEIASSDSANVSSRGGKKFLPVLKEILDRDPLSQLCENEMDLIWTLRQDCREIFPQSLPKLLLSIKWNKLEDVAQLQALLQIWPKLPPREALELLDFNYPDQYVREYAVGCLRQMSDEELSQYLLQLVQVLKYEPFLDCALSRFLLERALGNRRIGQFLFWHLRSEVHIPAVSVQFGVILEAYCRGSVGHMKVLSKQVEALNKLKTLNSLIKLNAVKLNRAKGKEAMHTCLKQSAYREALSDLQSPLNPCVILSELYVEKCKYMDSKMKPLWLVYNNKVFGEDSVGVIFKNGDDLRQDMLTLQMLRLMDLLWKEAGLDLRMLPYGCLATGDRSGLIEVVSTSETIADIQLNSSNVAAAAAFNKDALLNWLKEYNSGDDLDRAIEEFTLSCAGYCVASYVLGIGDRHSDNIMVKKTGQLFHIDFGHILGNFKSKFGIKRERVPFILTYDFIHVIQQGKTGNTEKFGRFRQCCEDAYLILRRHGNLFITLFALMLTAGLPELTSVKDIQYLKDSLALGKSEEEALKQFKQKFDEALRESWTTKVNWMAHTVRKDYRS
T3 sequence (P27986 whole entry partner): as the sequence (P27986 whole entry partner) above
T2 sequence (P48736 whole entry): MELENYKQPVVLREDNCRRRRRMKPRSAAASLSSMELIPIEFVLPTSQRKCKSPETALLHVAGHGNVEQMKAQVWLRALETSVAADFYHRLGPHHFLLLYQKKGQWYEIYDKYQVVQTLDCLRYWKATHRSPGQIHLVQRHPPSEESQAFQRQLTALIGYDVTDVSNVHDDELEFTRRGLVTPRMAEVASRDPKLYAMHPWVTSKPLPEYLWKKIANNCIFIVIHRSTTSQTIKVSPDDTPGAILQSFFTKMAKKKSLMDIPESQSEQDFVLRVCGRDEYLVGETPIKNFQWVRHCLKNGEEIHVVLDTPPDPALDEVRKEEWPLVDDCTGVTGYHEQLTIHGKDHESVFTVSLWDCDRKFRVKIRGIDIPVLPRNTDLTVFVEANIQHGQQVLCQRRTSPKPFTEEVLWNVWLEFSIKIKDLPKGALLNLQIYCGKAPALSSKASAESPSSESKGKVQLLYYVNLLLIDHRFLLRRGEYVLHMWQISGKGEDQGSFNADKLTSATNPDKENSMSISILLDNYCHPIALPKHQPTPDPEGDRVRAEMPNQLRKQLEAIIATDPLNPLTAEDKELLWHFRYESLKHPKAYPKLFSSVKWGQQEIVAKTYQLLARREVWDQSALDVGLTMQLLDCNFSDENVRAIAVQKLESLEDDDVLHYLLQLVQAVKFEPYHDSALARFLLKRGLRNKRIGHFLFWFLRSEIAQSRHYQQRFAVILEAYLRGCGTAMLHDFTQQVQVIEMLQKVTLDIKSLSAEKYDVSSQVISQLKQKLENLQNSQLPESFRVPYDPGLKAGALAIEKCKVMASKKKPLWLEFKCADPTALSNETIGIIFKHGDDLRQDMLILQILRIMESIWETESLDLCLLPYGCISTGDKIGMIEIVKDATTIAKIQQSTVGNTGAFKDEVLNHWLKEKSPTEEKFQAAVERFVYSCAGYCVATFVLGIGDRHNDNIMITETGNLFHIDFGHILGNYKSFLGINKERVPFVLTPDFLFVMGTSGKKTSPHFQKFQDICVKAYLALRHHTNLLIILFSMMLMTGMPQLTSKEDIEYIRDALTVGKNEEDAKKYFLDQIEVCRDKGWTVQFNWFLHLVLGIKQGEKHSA

With `O=C1CC[C@@H](C(=O)N2CC=C(c3cc4nc(-c5cccc(O)c5)nc(N5CCOCC5)c4s3)CC2)O1` [XXII-1], the IC50 was 10 to 100 nM in experiment [1] and 100 to 1000 nM in experiment [2]. Turning to `C=CS(=O)(=O)N1CCN(Cc2cc3nc(-c4cccc5[nH]ncc45)nc(N4CCOCC4)c3s2)CC1` [XXII-8, 4-(2-(1H-indazol-4-yl)-6-((4-(vinylsulfonyl)piperazin-1-yl)methyl)thieno[3,2-d]pyrimidin-4-yl)morpholine], the IC50 in experiment [1] and in experiment [2] was 100 to 1000 nM each time. As to `C=CS(=O)(=O)Oc1cccc(-c2nc(N3CCOCC3)c3sc(CN(C)S(=O)(=O)C=C)cc3n2)c1` [XXII-9], the IC50 in experiment [1] and in experiment [2] was 100 to 1000 nM each time. Regarding `C[C@H]1OC(=O)[C@H]1NC(=O)N1CCN(Cc2cc3nc(-c4cccc5[nH]ncc45)nc(N4CCOCC4)c3s2)CC1` [XXII-13], the IC50 in experiment [1] and in experiment [2] was 100 to 1000 nM in each case. For `CC(C)Oc1c(N2CCN(Cc3cc4nc(-c5cccc6[nH]ncc56)nc(N5CCOCC5)c4s3)CC2)c(=O)c1=O` [XXII-15], the figures for the IC50 in experiment [1] and in experiment [2] were 10 to 100 nM and 100 to 1000 nM, respectively.

As for `O=C1O[C@H]2C[C@@H]1N(Cc1cc(O)cc(-c3nc(N4CCOCC4)c4sccc4n3)c1)C2` [XXII-20], the IC50 in experiment [1] was in the range of 100 to 1000 nM; in experiment [2], 1000 to 10000 nM. For the compound `C=CC(=O)Nc1cccc(-c2nc(N3CCOCC3)c3sccc3n2)c1` [XXII-21], the IC50 in experiment [1] and in experiment [2] was 1000 to 10000 nM each time. For the compound `O=C1CC[C@H](C(=O)N2CCN(Cc3cc4nc(-c5cccc6[nH]ncc56)nc(N5CCOCC5)c4s3)CC2)O1` [XXII-22], the IC50 in experiment [3] and in experiment [2] was 100 to 1000 nM throughout. On to `O=C1CC[C@@H](C(=O)N2CCN(Cc3cc4nc(-c5cccc6[nH]ncc56)nc(N5CCOCC5)c4s3)CC2)O1` [XXII-23], for which the IC50 in experiment [3] lay within 1000 to 10000 nM; in experiment [2] it was 100 to 1000 nM. With `CN(Cc1cc2nc(-c3cccc(O)c3)nc(N3CCOCC3)c2s1)C(=O)CCC(=O)N1CCC1=O` [XXII-24, N-((2-(3-hydroxyphenyl)-4-morpholinothieno[3,2-d]pyrimidin-6-yl)methyl)-N-methyl-4-oxo-4-(2-oxoazetidin-1-yl)butanamide], the IC50 in experiment [3] is 100 to 1000 nM.

For the compound `CC1(C)Cc2nc(N3CCOc4ccc(NC(=O)[C@@H]5CCC(=O)O5)cc43)sc2C(=O)N1` [XXIII-1], the half-inhibitory concentration (IC50) in experiment [1] and in experiment [2] was 100 to 1000 nM in each case. For the compound `CC1(C)Cc2nc(N3CCOc4ccc(NC(=O)[C@H]5CCC(=O)O5)cc43)sc2C(=O)N1` [XXIII-2], the IC50 in experiment [1] and in experiment [2] was 100 to 1000 nM in each case. On to `CC1(C)Cc2nc(N3CCOc4ccc(C(=O)N5C[C@H]6C[C@@H]5C(=O)O6)cc43)sc2C(=O)N1` [XXIII-3], for which the IC50 in experiment [1] and in experiment [2] was 100 to 1000 nM each time. For the compound `CC1(C)Cc2nc(N3CCOc4ccc(C(=O)N5C[C@@H]6C[C@H]5C(=O)O6)cc43)sc2C(=O)N1` [XXIII-4, (1S,4S)-5-(4-(6,6-dimethyl-4-oxo-4,5,6,7-tetrahydrothiazolo[5,4-c]pyridin-2-yl)-3,4-dihydro-2H-benzo[b][1,4]oxazine-6-carbonyl)-2-oxa-5-azabicyclo[2.2.1]heptan-3-one], the 50% inhibitory concentration (IC50) in experiment [1] and in experiment [2] was 100 to 1000 nM throughout.

Regarding `CC1(C)Cc2nc(N3CCOc4ccc(-c5ccc6occc(=O)c6c5)cc43)sc2C(=O)N1` [XXIII-6], the IC50 in experiment [1] and in experiment [2] was 100 to 1000 nM in each case. Consider `CC1(C)Cc2nc(N3CCOc4ccc(-c5ccc(C(=O)N6C[C@H]7C[C@@H]6C(=O)O7)cc5)cc43)sc2C(=O)N1` [XXIII-7], for which the IC50 in experiment [1] and in experiment [2] was 1000 to 10000 nM throughout.

On to `O=C1CC[C@H](C(=O)N2CCN(c3ccnc4ccc(/C=C5\SC(Nc6c(Cl)cccc6Cl)=NC5=O)cc34)CC2)O1` [XXIV-1], for which the figures for the IC50 in experiment [1] and in experiment [2] were 10 to 100 nM and 100 to 1000 nM, respectively. The corresponding values for `O=C1CC[C@@H](C(=O)N2CCN(c3ccnc4ccc(/C=C5\SC(Nc6c(Cl)cccc6Cl)=NC5=O)cc34)CC2)O1` [XXIV-2] are 100 to 1000 nM and 100 to 1000 nM. `COc1ncc(-c2ccc3nccc(-c4ccc(C(=O)N5C[C@@H]6C[C@H]5C(=O)O6)cc4)c3c2)cc1NS(=O)(=O)c1ccc(F)cc1F` [XXV-13, 2,4-difluoro-N-(2-methoxy-5-(4-(4-((1S,4S)-3-oxo-2-oxa-5-azabicyclo[2.2.1]heptane-5-carbonyl)phenyl)quinolin-6-yl)pyridin-3-yl)benzenesulfonamide]: in experiment [3], the concentration for half-maximal inhibition (IC50) is less than 10 nM. With `C=CC(=O)Nc1ccc(-c2ccnc3ccc(-c4cnc(OC)c(NS(=O)(=O)c5ccc(F)cc5F)c4)cc23)cc1` [XXV-14, N-(4-(6-(5-(2,4-difluorophenylsulfonamido)-6-methoxypyridin-3-yl)quinolin-4-yl)phenyl) acrylamide], the IC50 in experiment [3] was less than 10 nM.

`COc1ncc(-c2ccc3nccc(-c4ccc(C(=O)N5C[C@H]6C[C@@H]5C(=O)O6)cc4)c3c2)cc1NS(=O)(=O)c1ccc(F)cc1F` [XXV-15, 2,4-difluoro-N-(2-methoxy-5-(4-(4-((1R,4R)-3-oxo-2-oxa-5-azabicyclo[2.2.1]heptane-5-carbonyl)phenyl)quinolin-6-yl)pyridin-3-yl)benzenesulfonamide]: in experiment [3], the IC50 is less than 10 nM. On to `COc1c(OCCCC(=O)N2C[C@H]3C[C@@H]2C(=O)O3)ccc2c1N=C(NC(=O)c1cccnc1)N1CCN=C21` [XXVII-13, N-(7-methoxy-8-(4-oxo-4-((1R,4R)-3-oxo-2-oxa-5-azabicyclo[2.2.1]heptan-5-yl)butoxy)-2,3-dihydroimidazo[1,2-c]quinazolin-5-yl)nicotinamide], for which, in experiment [3], the IC50 fell in the range of 100 to 1000 nM. Still for that read-out and setting: to `COc1c(OCCCC(=O)N2C[C@@H]3C[C@H]2C(=O)O3)ccc2c1N=C(NC(=O)c1cccnc1)N1CCN=C21` [XXVII-14, N-(7-methoxy-8-(4-oxo-4-((1S,4S)-3-oxo-2-oxa-5-azabicyclo[2.2.1]heptan-5-yl)butoxy)-2,3-dihydroimidazo[1,2-c]quinazolin-5-yl)nicotinamide] belongs 100 to 1000 nM.

As to `COc1ccc(C(=O)N2C[C@@H]3C[C@H]2C(=O)O3)cc1-n1c(CSc2ncnc3[nH]cnc23)nc2cccc(Cl)c2c1=O` [XXXVII-1, (1S,4S)-5-(3-(2-((9H-purin-6-ylthio)methyl)-5-chloro-4-oxoquinazolin-3(4H)-yl)-4-methoxybenzoyl)-2-oxa-5-azabicyclo[2.2.1]heptan-3-one], in experiment [3], the IC50 was 100 to 1000 nM. In the case of `COc1ccc(NC(=O)[C@H]2CCC(=O)O2)cc1-n1c(CSc2ncnc3[nH]cnc23)nc2cccc(Cl)c2c1=O` [XXXVII-2, (R)-N-(3-(2-((9H-purin-6-ylthio)methyl)-5-chloro-4-oxoquinazolin-3(4H)-yl)-4-methoxyphenyl)-5-oxotetrahydrofuran-2-carboxamide], the IC50 in experiment [3] fell in the range of 100 to 1000 nM. `COc1ccc(NC(=O)[C@@H]2CCC(=O)O2)cc1-n1c(CSc2ncnc3[nH]cnc23)nc2cccc(Cl)c2c1=O` [XXXVII-3, (S)-N-(3-(2-((9H-purin-6-ylthio)methyl)-5-chloro-4-oxoquinazolin-3(4H)-yl)-4-methoxyphenyl)-5-oxotetrahydrofuran-2-carboxamide]: the IC50 in experiment [3] was 100 to 1000 nM. As to `COc1ccc(NC(=O)N2C[C@@H]3C[C@H]2C(=O)O3)cc1-n1c(CSc2ncnc3[nH]cnc23)nc2cccc(Cl)c2c1=O` [XXXVII-4, (1S,4S)-N-(3-(2-((9H-purin-6-ylthio)methyl)-5-chloro-4-oxoquinazolin-3(4H)-yl)-4-methoxyphenyl)-3-oxo-2-oxa-5-azabicyclo[2.2.1]heptane-5-carboxamide], in experiment [3], the IC50 fell in the range of 100 to 1000 nM.
